Assay results as given in patent US5972933A, “Method of treating microbial infections” (Ed. Geistlich Sohne AG Fur Chemische Industrie, priority 1998, dated 1999).

Experiments:
EMRSA 15 strains = conditions: local EMRSA 15 strains, typically; cited from earlier work
VRE, designated HAM-1 = conditions: commonly encountered VRE; cited from earlier work
S. aureus NCTC 6571 = experiment: Disc sensitivity testing (Stokes), reference strain; format: cell-based, Staphylococcus aureus; conditions: CLX
Description: All routine sensitivity testing was performed using a standard disc diffusion technique (Stokes) performed on Unipath (Oxoid) Diagnostic Sensitivity Test agar with 5% lysed horse blood.
Testing of Staphylococci--Staphylococcus aureus (Oxford strain) NCTC 6571
Inocula for test and control organisms were prepared from overnight 37° C. Unipath (Oxoid) Brain Heart Infusion broth cultures. Prom these well-mixed cultures, 2 drops ([…]) were transferred to 3 ml sterile water. This suspension was used to moisten sterile cotton tipped swabs which were then used with a rotary plater for inoculation of test plates.
The following disc sets were used for sensitivity testing:
Methicillin Sensitivity Testing
Methicillin (cloxacillin) sensitivity for Staphylococci was confirmed using a methicillin test strips (Methi-test, Medical Wire Limited--MW981) and a heavy inoculum. This was prepared by adding 5 colonies from an overnight nutrient agar plate culture 3 ml water.
For each organism, including sensitive and resistant controls, a loop was charged with the heavy inoculum suspension and streaked across a Unipath (Oxoid) Diagnostic Sensitivity Test plus 5% lysed horse blood agar plate in a single direction. A methicillin strip was then placed on the surface of the plate at right angles to the inocula. […]

bacteria and fungi [1] = experiment: Antimicrobial activity (general statements); format: cell-based
TNF production = TNF production in human blood / antibiotic-treated cultures; format: cell-based
Description: Taurolidine and/or Taurultam prevent over-production of cytokines in the patient by monocytes of the blood.

bacteria and fungi [2] = conditions: known antimicrobial substances; cited from earlier work
[3] = cited from earlier work
Staph. app. = experiment: Resistance to Vancomycin (30 μg/Disc), Staph. app.; format: cell-based
Description: ^1 VE30: Resistance to Vancomycin (30 μg/Disc)

Row | Molecule | in vitro resistance of strain (EMRSA 15 strains) | in vitro resistance of strain (VRE, designated HAM-1) | further results
1 | CC[C@H]1OC(=O)[C@H](C)[C@@H](O[C@H]2C[C@@](C)(OC)[C@@H](O)[C@H](C)O2)[C@H](C)[C@@H](O[C@@H]2O[C@H](C)C[C@H](N(C)C)[C@H]2O)[C@](C)(O)C[C@@H](C)C(=O)[C@H](C)[C@@H](O)[C@]1(C)O [Erythromycin] | resistant in vitro | resistance in vitro | 
2 | Gentamicin |  | high level gentamicin resistance | 
3 | C/C(=C\C(=O)OCCCCCCCCC(=O)O)C[C@@H]1OC[C@H](C[C@@H]2O[C@H]2[C@@H](C)[C@H](C)O)[C@@H](O)[C@H]1O [Mupirocin] | resistant in vitro |  | 
4 | COc1cccc(OC)c1C(=O)N[C@@H]1C(=O)N2[C@@H]1SC(C)(C)[C@@H]2C(=O)O [Methicillin, methicillin] | resistant in vitro |  | 
5 | Cc1onc(-c2ccccc2Cl)c1C(=O)N[C@@H]1C(=O)N2[C@@H]1SC(C)(C)[C@@H]2C(=O)O [Cloxacillin] | resistant in vitro |  | disc sensitivity, methicillin (cloxacillin) (S. aureus NCTC 6571): S (Test zones <5 mm smaller than the control zone are SENSITIVE)
6 | O=S1(=O)CCNCN1 [Taurultam] |  |  | rate of bacterial killing (bacteria and fungi [1]): kills bacteria slowly; resistance development (bacteria and fungi [1]): no resistance development by microbes has been observed; TNF production (TNF production; added to antibiotic-treated cultures): prevents a rise in TNF production; neutralization of released endotoxins (TNF production; antibiotic-treated cultures): nearly complete neutralization of released endotoxins; antimicrobial spectrum (bacteria and fungi [2]): broad-spectrum activity against aerobic and anaerobic bacteria, mycobacteria and fungi; half-life in vivo [3]: short half-life in vivo
7 | O=C(O)c1cn(C2CC2)c2cc(N3CCNCC3)c(F)cc2c1=O [Ciprofloxacin] | resistant in vitro |  | 
8 | CC1(C)S[C@@H]2[C@H](NC(=O)[C@H](N)c3ccccc3)C(=O)N2[C@H]1C(=O)O [Ampicillin] |  | resistance in vitro | 
9 | CN[C@H](CC(C)C)C(=O)N[C@H]1C(=O)N[C@@H](CC(N)=O)C(=O)N[C@H]2C(=O)N[C@H]3C(=O)N[C@H](C(=O)N[C@H](C(=O)O)c4cc(O)cc(O)c4-c4cc3ccc4O)[C@H](O)c3ccc(c(Cl)c3)Oc3cc2cc(c3O[C@@H]2O[C@H](CO)[C@@H](O)[C@H](O)[C@H]2O[C@H]2C[C@](C)(N)[C@H](O)[C@H](C)O2)Oc2ccc(cc2Cl)[C@H]1O [Vancomycin] |  | resistance in vitro | VE30: Resistance to Vancomycin (Staph. app.): S
10 | Teicoplanin |  | resistance in vitro | 
11 | CCC[C@@H]1C[C@@H](C(=O)N[C@@H]([C@H]2O[C@H](SC)[C@H](O)[C@@H](O)[C@H]2O)[C@H](C)Cl)N(C)C1 [Clindamycin, clindamycin] | resistant in vitro |  | 
